Laboratory results: the kinase profiling compilation of Christmann-Franck et al. (2016)

Tests used:
Assay in all cases: radiometric filter-binding kinase assay
[1] = tested on: AKT1 (human), P31749 [S473D]
[2] = target: MAP2K6 (human) (UniProt P52564)
[3] = target: PLK1 (human) (UniProt P53350)
[4] = target: MAPK13 (human) (UniProt O15264)
[5] = target: EPHB2 (human) (UniProt P29323); conditions: compound 0.1 µM
[6] = target: PRKACA (human) (UniProt P17612)
[7] = target: ERBB4 (human) (UniProt Q15303)
[8] = target: AURKA (human) (UniProt O14965)
[9] = target: IKBKE (human) (UniProt Q14164)
[10] = target: MAPK8 (human) (UniProt P45983)
[11] = target: CHEK2 (human) (UniProt O96017)
[12] = target: EPHB3 (human) (UniProt P54753)
[13] = target: PRKCA (human) (UniProt P17252)
[14] = target: MAPK10 (human) (UniProt P53779)
[15] = target: BRSK2 (human) (UniProt Q8IWQ3)
[16] = target: MAP3K11 (human) (UniProt Q16584)
[17] = target: PAK4 (human) (UniProt O96013)
[18] = target: NEK2 (human) (UniProt P51955)
[19] = target: MKNK1 (human) (UniProt Q9BUB5)
[20] = target: DYRK2 (human) (UniProt Q92630)
[21] = target: RPS6KA1 KD1 KD2 (human) (UniProt Q15418)
[22] = target: MAPKAPK3 (human) (UniProt Q16644)
[23] = target: MST4 (human) (UniProt Q9P289)
[24] = target: HIPK2 (human) (UniProt Q9H2X6)
[25] = target: MAPK1 (human) (UniProt P28482)
[26] = target: CaMK1 (human) (UniProt Q14012)
[27] = target: MARK2 (human) (UniProt Q7KZI7)
[28] = target: PAK7 (human) (UniProt Q9P286)
[29] = target: SYK (human) (UniProt P43405)
[30] = target: DYRK1A (human) (UniProt Q13627)
[31] = tested on: SGK1 (human), O00141 [S422D]; conditions: compound 10.0 µM
[32] = target: NUAK1 (human) (UniProt O60285)
[33] = target: MAPK12 (human) (UniProt P53778)
[34] = tested on: PRKAA1 or PRKAA2 (rat); conditions: accession and sequence are those of the human protein
[35] = target: MAPK3 (human) (UniProt P27361)

MAPK8 (human), sequence (P45983 whole entry, looked up): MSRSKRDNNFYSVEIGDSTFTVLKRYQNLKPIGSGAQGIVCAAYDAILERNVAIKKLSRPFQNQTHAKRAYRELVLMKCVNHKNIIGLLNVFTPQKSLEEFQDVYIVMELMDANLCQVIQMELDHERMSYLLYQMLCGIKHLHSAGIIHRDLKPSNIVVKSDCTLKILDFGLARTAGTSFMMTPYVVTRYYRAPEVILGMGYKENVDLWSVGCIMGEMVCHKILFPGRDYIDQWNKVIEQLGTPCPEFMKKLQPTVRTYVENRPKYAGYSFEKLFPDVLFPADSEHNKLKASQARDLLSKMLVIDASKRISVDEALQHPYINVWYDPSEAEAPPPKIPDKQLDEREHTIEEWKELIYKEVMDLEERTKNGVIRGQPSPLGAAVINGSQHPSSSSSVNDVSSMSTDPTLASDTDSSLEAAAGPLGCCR
MKNK1 (human), sequence (Q9BUB5 whole entry, looked up): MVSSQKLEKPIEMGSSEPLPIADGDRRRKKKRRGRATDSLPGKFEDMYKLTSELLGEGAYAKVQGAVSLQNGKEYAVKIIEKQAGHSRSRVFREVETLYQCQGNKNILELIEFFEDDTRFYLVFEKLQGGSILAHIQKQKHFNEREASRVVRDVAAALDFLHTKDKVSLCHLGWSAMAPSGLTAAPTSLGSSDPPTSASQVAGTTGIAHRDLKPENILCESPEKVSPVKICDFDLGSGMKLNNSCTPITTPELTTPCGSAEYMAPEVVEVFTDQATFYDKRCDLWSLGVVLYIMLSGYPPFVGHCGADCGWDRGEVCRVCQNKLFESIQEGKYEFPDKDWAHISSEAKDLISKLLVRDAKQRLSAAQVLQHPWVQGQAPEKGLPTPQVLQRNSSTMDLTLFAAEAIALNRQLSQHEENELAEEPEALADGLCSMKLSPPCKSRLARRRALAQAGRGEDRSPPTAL
MAPK1 (human), sequence (P28482 whole entry, looked up): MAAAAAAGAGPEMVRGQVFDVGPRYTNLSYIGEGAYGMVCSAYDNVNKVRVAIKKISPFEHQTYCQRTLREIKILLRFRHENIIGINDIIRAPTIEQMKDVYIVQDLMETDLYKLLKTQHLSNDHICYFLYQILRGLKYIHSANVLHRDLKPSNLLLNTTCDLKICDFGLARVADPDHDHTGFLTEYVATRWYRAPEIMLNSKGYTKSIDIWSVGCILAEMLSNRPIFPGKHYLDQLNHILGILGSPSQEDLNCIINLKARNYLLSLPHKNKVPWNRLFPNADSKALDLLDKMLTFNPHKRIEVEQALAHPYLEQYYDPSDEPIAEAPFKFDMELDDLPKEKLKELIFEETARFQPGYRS
MAPK13 (human), sequence (O15264 whole entry, looked up): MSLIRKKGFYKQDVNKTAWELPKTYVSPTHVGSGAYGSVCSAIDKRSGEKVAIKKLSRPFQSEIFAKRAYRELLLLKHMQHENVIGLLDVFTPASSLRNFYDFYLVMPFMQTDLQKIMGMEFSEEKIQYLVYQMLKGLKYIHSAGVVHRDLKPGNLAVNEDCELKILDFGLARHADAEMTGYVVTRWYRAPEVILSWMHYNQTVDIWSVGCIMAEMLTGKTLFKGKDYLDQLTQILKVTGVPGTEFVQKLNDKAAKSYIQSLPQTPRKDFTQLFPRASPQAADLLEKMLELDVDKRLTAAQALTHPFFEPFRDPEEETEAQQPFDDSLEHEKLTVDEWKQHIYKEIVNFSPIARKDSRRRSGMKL
RPS6KA1 KD1 KD2 (human), sequence (Q15418 whole entry, looked up): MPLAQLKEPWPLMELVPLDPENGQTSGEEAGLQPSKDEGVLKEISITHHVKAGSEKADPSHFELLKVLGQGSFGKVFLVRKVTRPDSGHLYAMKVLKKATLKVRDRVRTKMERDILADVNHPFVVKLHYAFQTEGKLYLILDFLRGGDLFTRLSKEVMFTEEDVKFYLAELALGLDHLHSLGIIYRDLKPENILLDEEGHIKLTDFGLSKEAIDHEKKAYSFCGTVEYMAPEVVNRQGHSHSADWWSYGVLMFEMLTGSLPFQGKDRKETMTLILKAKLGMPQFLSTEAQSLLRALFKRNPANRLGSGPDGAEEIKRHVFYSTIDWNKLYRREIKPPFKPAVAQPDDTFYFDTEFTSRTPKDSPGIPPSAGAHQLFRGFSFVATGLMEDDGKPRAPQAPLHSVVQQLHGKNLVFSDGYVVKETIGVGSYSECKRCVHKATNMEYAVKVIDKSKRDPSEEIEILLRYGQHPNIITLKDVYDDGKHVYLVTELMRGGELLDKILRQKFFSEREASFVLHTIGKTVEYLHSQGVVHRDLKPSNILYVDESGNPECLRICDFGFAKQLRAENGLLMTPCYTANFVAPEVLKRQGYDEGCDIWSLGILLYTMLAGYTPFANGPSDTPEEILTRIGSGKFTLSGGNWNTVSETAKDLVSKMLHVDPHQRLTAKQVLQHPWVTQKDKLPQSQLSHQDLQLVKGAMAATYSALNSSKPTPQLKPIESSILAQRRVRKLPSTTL
PLK1 (human), sequence (P53350 whole entry, looked up): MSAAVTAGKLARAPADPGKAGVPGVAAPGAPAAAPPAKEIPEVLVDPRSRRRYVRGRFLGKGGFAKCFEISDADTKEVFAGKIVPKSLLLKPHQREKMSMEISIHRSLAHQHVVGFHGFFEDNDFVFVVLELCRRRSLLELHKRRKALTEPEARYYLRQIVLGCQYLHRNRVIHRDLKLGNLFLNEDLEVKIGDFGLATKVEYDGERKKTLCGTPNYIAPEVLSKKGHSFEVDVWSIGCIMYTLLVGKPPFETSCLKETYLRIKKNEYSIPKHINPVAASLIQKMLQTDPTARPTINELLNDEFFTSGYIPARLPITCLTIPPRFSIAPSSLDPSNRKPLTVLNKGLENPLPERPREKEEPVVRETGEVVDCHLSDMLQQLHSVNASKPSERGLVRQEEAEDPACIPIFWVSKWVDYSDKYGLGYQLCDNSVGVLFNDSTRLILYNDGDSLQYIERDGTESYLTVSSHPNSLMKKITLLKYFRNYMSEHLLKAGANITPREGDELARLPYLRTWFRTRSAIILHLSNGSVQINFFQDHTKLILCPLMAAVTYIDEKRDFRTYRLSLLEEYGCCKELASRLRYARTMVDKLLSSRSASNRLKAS
PAK4 (human), sequence (O96013 whole entry, looked up): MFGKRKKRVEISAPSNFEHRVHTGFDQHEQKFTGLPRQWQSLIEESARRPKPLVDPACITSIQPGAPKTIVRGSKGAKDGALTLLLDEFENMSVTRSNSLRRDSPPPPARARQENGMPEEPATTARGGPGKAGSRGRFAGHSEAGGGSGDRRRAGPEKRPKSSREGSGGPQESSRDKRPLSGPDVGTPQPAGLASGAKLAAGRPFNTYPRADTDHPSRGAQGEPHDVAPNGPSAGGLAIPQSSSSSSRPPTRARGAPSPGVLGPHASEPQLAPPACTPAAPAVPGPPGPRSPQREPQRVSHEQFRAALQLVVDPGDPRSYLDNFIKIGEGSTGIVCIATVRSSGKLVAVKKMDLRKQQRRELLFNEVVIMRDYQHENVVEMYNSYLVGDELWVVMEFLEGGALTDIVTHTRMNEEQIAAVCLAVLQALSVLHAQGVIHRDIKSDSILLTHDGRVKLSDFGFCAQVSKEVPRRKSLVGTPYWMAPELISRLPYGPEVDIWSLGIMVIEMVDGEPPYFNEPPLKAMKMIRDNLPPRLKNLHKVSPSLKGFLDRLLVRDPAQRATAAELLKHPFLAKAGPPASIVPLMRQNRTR
CaMK1 (human), sequence (Q14012 whole entry, looked up): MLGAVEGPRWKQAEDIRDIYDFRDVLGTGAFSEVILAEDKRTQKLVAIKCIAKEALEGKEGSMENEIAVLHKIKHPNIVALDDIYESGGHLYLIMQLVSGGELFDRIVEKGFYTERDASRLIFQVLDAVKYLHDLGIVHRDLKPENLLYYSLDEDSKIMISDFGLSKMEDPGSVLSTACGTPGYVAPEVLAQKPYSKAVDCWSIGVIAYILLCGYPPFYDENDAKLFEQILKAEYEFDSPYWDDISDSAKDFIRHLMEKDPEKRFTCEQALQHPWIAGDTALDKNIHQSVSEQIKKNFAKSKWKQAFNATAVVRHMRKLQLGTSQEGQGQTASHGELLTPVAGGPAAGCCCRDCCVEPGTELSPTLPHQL
MST4 (human), sequence (Q9P289 whole entry, looked up): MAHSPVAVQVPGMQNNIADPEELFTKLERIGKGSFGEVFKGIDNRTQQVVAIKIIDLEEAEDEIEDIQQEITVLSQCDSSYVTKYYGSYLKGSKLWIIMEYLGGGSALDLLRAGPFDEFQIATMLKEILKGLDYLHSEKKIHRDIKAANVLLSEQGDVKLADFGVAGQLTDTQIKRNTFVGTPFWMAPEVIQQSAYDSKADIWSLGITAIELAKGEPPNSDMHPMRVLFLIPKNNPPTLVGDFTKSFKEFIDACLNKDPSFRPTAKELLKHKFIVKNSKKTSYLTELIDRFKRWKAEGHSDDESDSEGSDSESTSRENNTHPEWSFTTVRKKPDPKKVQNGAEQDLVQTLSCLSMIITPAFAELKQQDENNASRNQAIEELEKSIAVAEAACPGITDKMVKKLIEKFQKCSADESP
AKT1 (human), P31749 [S473D], sequence (P31749 whole entry S473D, looked up): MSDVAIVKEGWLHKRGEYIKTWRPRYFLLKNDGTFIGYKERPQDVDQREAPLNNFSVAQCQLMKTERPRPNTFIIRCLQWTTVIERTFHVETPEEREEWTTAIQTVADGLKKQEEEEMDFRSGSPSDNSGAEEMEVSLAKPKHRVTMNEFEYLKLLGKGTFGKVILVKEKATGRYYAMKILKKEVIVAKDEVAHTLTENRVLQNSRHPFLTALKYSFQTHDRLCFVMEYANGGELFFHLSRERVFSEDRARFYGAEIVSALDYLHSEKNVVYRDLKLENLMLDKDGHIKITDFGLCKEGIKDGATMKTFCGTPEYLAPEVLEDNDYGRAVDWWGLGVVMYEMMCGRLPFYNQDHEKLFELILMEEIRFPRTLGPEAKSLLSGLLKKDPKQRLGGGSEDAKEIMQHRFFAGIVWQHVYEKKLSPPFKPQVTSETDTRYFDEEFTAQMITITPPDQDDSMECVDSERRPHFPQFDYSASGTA

## NC(=O)c1cc(-c2ccnc(NC3CCCCC3)c2)nc(N2CCNCC2)c1
[1]; compound 0.1 µM
  residual activity: 109%
[1]; compound 1.0 µM
  residual activity: 106%
[1]; compound 10.0 µM
  residual activity: 94%
[2]; compound 0.1 µM
  residual activity: 92%
[2]; compound 1.0 µM
  residual activity: 29%
[2]; compound 10.0 µM
  residual activity: 16%
[3]; compound 0.1 µM
  residual activity: 101%
[3]; compound 1.0 µM
  residual activity: 117%
[3]; compound 10.0 µM
  residual activity: 111%
[4]; compound 0.1 µM
  residual activity: 89%
[4]; compound 1.0 µM
  residual activity: 93%
[4]; compound 10.0 µM
  residual activity: 50%
[5]
  residual activity: 105%
[6]; compound 0.1 µM
  residual activity: 105%
[6]; compound 1.0 µM
  residual activity: 109%
[6]; compound 10.0 µM
  residual activity: 93%
[7]; compound 0.1 µM
  residual activity: 83%
[7]; compound 10.0 µM
  residual activity: 73%
[8]; compound 0.1 µM
  residual activity: 92%
[8]; compound 1.0 µM
  residual activity: 88%
[8]; compound 10.0 µM
  residual activity: 112%
[9]; compound 0.1 µM
  residual activity: 98%
[9]; compound 1.0 µM
  residual activity: 87%
[9]; compound 10.0 µM
  residual activity: 48%
[10]; compound 0.1 µM
  residual activity: 109%
[10]; compound 1.0 µM
  residual activity: 100%
[10]; compound 10.0 µM
  residual activity: 38%
[11]; compound 0.1 µM
  residual activity: 102%
[11]; compound 1.0 µM
  residual activity: 106%
[11]; compound 10.0 µM
  residual activity: 88%
[12]; compound 0.1 µM
  residual activity: 105%
[12]; compound 1.0 µM
  residual activity: 124%
[12]; compound 10.0 µM
  residual activity: 94%
[13]; compound 0.1 µM
  residual activity: 97%
[13]; compound 1.0 µM
  residual activity: 95%
[13]; compound 10.0 µM
  residual activity: 90%
[14]; compound 0.1 µM
  residual activity: 88%
[14]; compound 1.0 µM
  residual activity: 79%
[14]; compound 10.0 µM
  residual activity: 31%
[15]; compound 0.1 µM
  residual activity: 67%
[15]; compound 1.0 µM
  residual activity: 26%
[15]; compound 10.0 µM
  residual activity: 8%
[16]; compound 0.1 µM
  residual activity: 93%
[16]; compound 1.0 µM
  residual activity: 86%
[16]; compound 10.0 µM
  residual activity: 81%
[17]; compound 0.1 µM
  residual activity: 101%
[17]; compound 1.0 µM
  residual activity: 93%
[17]; compound 10.0 µM
  residual activity: 74%
[18]; compound 0.1 µM
  residual activity: 111%
[18]; compound 1.0 µM
  residual activity: 129%
[18]; compound 10.0 µM
  residual activity: 113%
[19]; compound 0.1 µM
  residual activity: 95%
[19]; compound 1.0 µM
  residual activity: 38%
[19]; compound 10.0 µM
  residual activity: 7%
[20]; compound 0.1 µM
  residual activity: 74%
[20]; compound 1.0 µM
  residual activity: 29%
[20]; compound 10.0 µM
  residual activity: 10%
[21]; compound 0.1 µM
  residual activity: 88%
[21]; compound 1.0 µM
  residual activity: 53%
[21]; compound 10.0 µM
  residual activity: 2%
[22]; compound 0.1 µM
  residual activity: 92%
[22]; compound 1.0 µM
  residual activity: 100%
[22]; compound 10.0 µM
  residual activity: 92%
[23]; compound 0.1 µM
  residual activity: 117%
[23]; compound 1.0 µM
  residual activity: 107%
[23]; compound 10.0 µM
  residual activity: 95%
[24]; compound 0.1 µM
  residual activity: 89%
[24]; compound 1.0 µM
  residual activity: 125%
[24]; compound 10.0 µM
  residual activity: 87%
[25]; compound 0.1 µM
  residual activity: 36%
[25]; compound 1.0 µM
  residual activity: 29%
[25]; compound 10.0 µM
  residual activity: 6%
[26]; compound 0.1 µM
  residual activity: 81%
[26]; compound 1.0 µM
  residual activity: 20%
[26]; compound 10.0 µM
  residual activity: 1%
[27]; compound 0.1 µM
  residual activity: 97%
[27]; compound 1.0 µM
  residual activity: 63%
[27]; compound 10.0 µM
  residual activity: 31%
[28]; compound 0.1 µM
  residual activity: 97%
[28]; compound 1.0 µM
  residual activity: 90%
[28]; compound 10.0 µM
  residual activity: 71%
[29]; compound 0.1 µM
  residual activity: 90%
[29]; compound 1.0 µM
  residual activity: 104%
[29]; compound 10.0 µM
  residual activity: 92%
[30]; compound 0.1 µM
  residual activity: 97%
[30]; compound 1.0 µM
  residual activity: 63%
[30]; compound 10.0 µM
  residual activity: 21%
[31]
  residual activity: 90%
[32]; compound 1.0 µM
  residual activity: 17%
[32]; compound 10.0 µM
  residual activity: 32%
[33]; compound 0.1 µM
  residual activity: 95%
[33]; compound 1.0 µM
  residual activity: 96%
[33]; compound 10.0 µM
  residual activity: 58%
[34]; compound 0.1 µM
  residual activity: 97%
[34]; compound 1.0 µM
  residual activity: 61%
[34]; compound 10.0 µM
  residual activity: 20%
[35]; compound 0.1 µM
  residual activity: 78%
[35]; compound 1.0 µM
  residual activity: 34%
[35]; compound 10.0 µM
  residual activity: 10%
